In publication PMC10463376, “Design, synthesis, in vitro anticancer, molecular docking and SAR studies of new series of pyrrolo[2,3-d]pyrimidine derivatives” (BMC Chemistry, 2023):
In brackets after ≈: the same amount, converted by molar mass.

Legend:
MCF7 breast cancer cells = assay: MTT assay, MCF7; conditions: for cytotoxicity at 100 µg/mL / IC50: Homo sapiens, MCF7, 72 h; for IC50: read-out: IC50 MCF7
Source text: (§1) All of the following steps were done in a sterile Laminar flow class II biosafety cabinet (Baker, SG406INT, Sanford, ME, USA). DMEM was used as a suspension medium for breast cancer (MCF7), colorectal cancer (HCT116), prostate cancer (PC3), liver cancer (HePG2), pancreatic cancer (PACA2) and lung cancer (A549), while normal cell line (BJ1) was suspended in DMEM-F12 medium. The selected cell lines were purchased from American Type Culture Collection (ATCC). The media were supplemented with a 1% antimycotic-antibiotic mixture (10,000 µg/ml streptomycin sulfate, 25 µg/ml Amphotericin B, and 10,000 U/ml Potassium Penicillin) and 1% L-glutamine. 10 × 10^4cells/well were seeded in 96 well microtiter plates and incubated for 24 h at 37 ℃ under 5% carbon dioxide using a water-jacketed Carbon dioxide incubator (Sheldon, SCO5A, OR, USA). […] After the incubation time of 72 h, the medium was removed. Afterward, 40 µl MTT salt ([…]) was added to each well and kept for 4 h under the same conditions of 37 °C and 5% carbon dioxide. Finally, 200 μl of 10% Sodium dodecyl sulfate (SDS) in deionized water was added to each well and incubated overnight at 37 °C. The step of SDS addition was done to stop the reaction and dissolve the formed formazan crystals. The absorbance was then measured at a wavelength of 595 nm and the reference wavelength was set at 620 nm using a microplate multi-well reader (Bio-Rad Laboratories Inc., model 3356, California, USA). […] A statistical significance analysis was determined between the samples and the negative control using an independent t-test by SPSS 11 program. Dimethyl sulfoxide (DMSO) was the vehicle that dissolved our synthesized compounds and its concentration in the cells was less than 0.2%. IC50 values were calculated using the GraphPad Prism 6 program. The degree of selectivity of the synthetic compounds was expressed as SI = IC50 of a pure compound in a normal cell line/IC50 of the same pure compound in the cancer cell line, where IC50 is the concentration of the compound required to kill 50% of the cells.

A549 lung cancer cells = assay: MTT assay, A549; conditions: for cytotoxicity at 100 µg/mL: read-out: MTT cell proliferation mortality assay (%) A549, at 100 μg/ml, 72 h
Source text: as §1

[1] = system: HCT116 colorectal cancer cells; assay: MTT assay, HCT116; conditions: for cytotoxicity at 100 µg/mL / IC50: Homo sapiens, HCT-116, 72 h; for cytotoxicity at 100 µg/mL: read-out: MTT cell proliferation mortality assay (%) HCT116, at 100 μg/ml, 72 h; for IC50: read-out: IC50 HCT116; for cytotoxicity: read-out: MTT cell proliferation mortality assay (%) HCT116, at 100 μg/ml, 72 h
Source text: as §1

[2] = system: PC3 prostate cancer cells; assay: MTT assay, PC3; conditions: Homo sapiens, 72 h; for cytotoxicity at 100 µg/mL: read-out: MTT cell proliferation mortality assay (%) PC3, at 100 μg/ml, 72 h
Source text: as §1

HePG2 liver cancer cells = assay: MTT assay, HePG2; conditions: Homo sapiens, HepG2, 72 h; for cytotoxicity at 100 µg/mL: read-out: MTT cell proliferation mortality assay (%) HePG2; for IC50: read-out: IC50 HePG2
Source text: as §1

[3] = system: PACA2 pancreatic cancer cells; assay: MTT assay, PACA2; conditions: Homo sapiens, PaCa-2, 72 h; for cytotoxicity at 100 µg/mL: read-out: MTT cell proliferation mortality assay (%) PACA2; for IC50: read-out: IC50 PACA2
Source text: as §1

[4] = MTT assay, normal cell line BJ1; type: cell-based; conditions: human, at 100 μg/ml, read-out: MTT cell proliferation mortality assay (%) BJ1
Source text: as §1

[5] = read-out: MTT cell proliferation mortality assay (%) MCF7

| Compound | cytotoxicity at 100 µg/mL (MCF7 breast cancer cells; [5]) | cytotoxicity at 100 µg/mL (A549 lung cancer cells; Homo sapiens, A549, 72 h) | cytotoxicity at 100 µg/mL [1] | cytotoxicity at 100 µg/mL [2] | cytotoxicity at 100 µg/mL (HePG2 liver cancer cells) | cytotoxicity at 100 µg/mL [3] | cytotoxicity at 72 h, 100 μg/ml [4] | IC50 [1] | cytotoxicity [1] | IC50 (HePG2 liver cancer cells) | IC50 (MCF7 breast cancer cells) | cytotoxicity (MCF7 breast cancer cells; read-out: MTT cell proliferation mortality assay (%) MCF7, at 100 μg/ml, 72 h) | IC50 [3] | IC50 (A549 lung cancer cells; Homo sapiens, A549, 72 h, read-out: IC50 A549) | cytotoxicity (A549 lung cancer cells; read-out: MTT cell proliferation mortality assay (%) A549, at 100 μg/ml, 72 h) | IC50 ([2]; read-out: IC50 PC3) |
| --- | --- | --- | --- | --- | --- | --- | --- | --- | --- | --- | --- | --- | --- | --- | --- | --- |
| Clc1ccc(-n2cc(-c3ccc(Br)cc3)c3c(Cl)ncnc32)c(Cl)c1 [Compound 5, 5-(4-bromophenyl)-4-chloro-7-(2,4-dichlorophenyl)-7H-pyrrolo[2,3-d]pyrimidine] | 27.9 ± 1.2% | 25.1 ± 0.7% | 60.4 ± 0.9% | 42.3 ± 1.3% | 34.5 ± 2.9% | 29.3 ± 0.8% | 16.3 ± 2% | – | – | – | – | – | – | – | – | – |
| O=c1[nH]cnc2c1c(-c1ccc(Br)cc1)cn2-c1ccc(Cl)cc1Cl [Compound 3a, 5-(4-bromophenyl)-7-(2,4-dichlorophenyl)-3,7-dihydro-4H-pyrrolo[2,3-d]pyrimidin-4-one] | 63.5 ± 2.6% | 3.4 ± 0.2% | 80 to 90% | 36.5 ± 0.9% | 100% | 71.3 ± 0.8% | 95.3 ± 1.8% | 44.5 ± 1.3 µg/mL (≈ 102 µM) | 84.3 ± 1.1% | 19.2 ± 0.6 µg/mL (≈ 44.1 µM) | – | – | – | – | – | – |
| COc1nc(C(Cl)(Cl)Cl)nc2c1c(-c1ccc(Br)cc1)c(Cl)n2-c1ccc(Cl)cc1Cl [Compound 8, 5-(4-bromophenyl)-6-chloro-7-(2,4-dichlorophenyl)-4-methoxy-2-(trichloromethyl)-7H-pyrrolo[2,3-d]pyrimidine] | 84.3 ± 2.5% | 19.3 ± 1.2% | 80 to 90% | 13.5 ± 1.5% | 100% | 100% | 15.6 ± 2.8% | 68.1 ± 1 µg/mL (≈ 113 µM) | 80 ± 1% | 17.8 ± 1.3 µg/mL (≈ 29.6 µM) | 48 ± 1.5 µg/mL (≈ 79.9 µM) | 80 to 95% | 23.5 ± 0.6 µg/mL (≈ 39.1 µM) | – | – | – |
| Clc1ccc(-n2c(Cl)c(-c3ccc(Br)cc3)c3c(Cl)ncnc32)c(Cl)c1 [Compound 4a, 5-(4-bromophenyl)-4,6-dichloro-7-(2,4-dichlorophenyl)-7H-pyrrolo[2,3-d]pyrimidine] | 100% | 80 to 90% | 74.2 ± 2.5% | 53 ± 0.7% | 43.5 ± 2.2% | 100% | 74.6 ± 0.6% | – | – | – | 32.4 ± 0.8 µg/mL (≈ 66.4 µM) | – | 24.1 ± 1 µg/mL (≈ 49.4 µM) | 68.9 ± 0.5 µg/mL (≈ 141 µM) | 79.4 ± 1.6% | – |
| CN1CCN(c2ncnc3c2c(-c2ccc(Br)cc2)c(Cl)n3-c2ccc(Cl)cc2Cl)CC1 [Compound 16a, 5-(4-bromophenyl)-6-chloro-7-(2,4-dichlorophenyl)-4-(4-methylpiperazin-1-yl)-7H-pyrrolo[2,3-d]pyrimidine] | 73.6 ± 2.2% | 3.2 ± 0.5% | 73.2 ± 0.8% | 3.8 ± 0.3% | 100% | 7.5 ± 1.1% | 70.5 ± 0.4% | – | – | – | – | – | – | – | – | – |
| COc1ncnc2c1c(-c1ccc(Br)cc1)c(Cl)n2-c1ccc(Cl)cc1Cl [Compound 9a, 5-(4-bromophenyl)-6-chloro-7-(2,4-dichlorophenyl)-4-methoxy-7H-pyrrolo[2,3-d]pyrimidine] | 75.2 ± 3.6% | 58.6 ± 1.3% | 52.1 ± 0.8% | 53.8 ± 0.3% | – | 1.3 ± 0.2% | 37.8 ± 0.6% | – | – | – | – | – | – | – | – | – |
| Cc1nc2c(c(-c3ccc(Br)cc3)cn2-c2ccc(Cl)cc2Cl)c(=O)[nH]1 [Compound 6, 5-(4-bromophenyl)-7-(2,4-dichlorophenyl)-2-methyl-3,7-dihydro-4H-pyrrolo[2,3-d]pyrimidin-4-one] | 100% | – | 100% | 100% | – | 100% | 84.9 ± 0.7% | 31.2 ± 0.9 µg/mL (≈ 69.5 µM) | – | – | 15.2 ± 0.9 µg/mL (≈ 33.8 µM) | – | 40 ± 1 µg/mL (≈ 89.1 µM) | – | – | 31.1 ± 0.9 µg/mL (≈ 69.2 µM) |
